# Assay results taken from patent publication US20240010726A1, “LFA-1 SIGNALLING MEDIATOR FOR USE IN CANCER THERAPY” (Universität Basel, priority 2020, published 2024).
# Tested on: PC3-PIP tumor cells
# Test: Anti-PSMA CAR T cell in vivo experiment with Mg2+-restricted diet
# Parameters: species or system NSG mice
# Conditions: Mg^2+-depleted diet vs control diet; anti-PSMA CAR T cells i.v.
# Experimental: FIG. 3: Magnesium regulates LFA-1 mediated T cell activation and cytotoxicity as well BiTE- and CAR T-cell functionality. (a) Glycolytic switch of murine WT and LFA-1^−/− CTLs upon injection of anti-CD3/28 Ab in medium containing 1.2 mM Mg^2+ and 0 mM Mg^2+, presented as quantification of summarized data with n=4 mice. (b) Calcium flux in WT and LFA-1^−/− Jurkat T cells stimulated with anti-CD3 Ab in 1.2 mM and 0 mM Mg^2+ medium, respectively. Cells were loaded with Fluo4, and signal intensity as recorded by plate reader, was normalized to unstimulated baseline values. […] Quantified results of n=3 mice with 3 technical replicates each. […] The effector to target cell ratio was 3:1. Results are quantified of n=3 mice with 3 technical replicates each. (e) Representative CD11a (LFA-1) surface expression on human naïve and EM CD8 T cells, PHA T cell blasts and REP T cells, assessed by flow cytometry. […] Data is presented as quantified results of n=5 healthy donors (f, g, h), n=3 healthy donors with 2 technical replicates each or n=1 healthy donor with 4 technical replicates (j). […] Data is presented as quantified results of n=1 healthy donor with 4 technical replicates. […] (p) Abundance of IFNγ in cell culture supernatants corresponding to the conditions depicted in (o) at 24 hours was determined by ELISA (n=8, 3 independent experiments). […] Tumor volume was monitored twice per week. […]
compound,measurement,value
"[Mg+2] [Mg^2+, Magnesium]",CAR T cell-mediated tumor rejection (tumor growth),negatively impacted CAR T cell-mediated tumor-rejection
